“Also recorded” adds a separate entry of the source.
Tests used:
UCH-L1 [1] = assay: Total amount and turnover of UCH-L1 in SH-SY5Y cells (pulse-chase, not shown); type: cell-based
UCH-L1 [2] = assay: Membrane association of UCH-L1 in SH-SY5Y cells (membrane fractionation, 2D electrophoresis, Western blotting); type: cell-based; conditions: compared to cells treated with DMSO
Protocol: Membrane fractionation: Cells were harvested by scraping and washed with PBS. Cell pellet was suspended in lysis buffer (50 mM Tris-HCl, 1 mM EDTA) supplemented with protease inhibitor cocktail (Sigma) and homogenized by passing through 26G needles 10 times. Suspension was clarified by spinning at 600 g for 5 minutes. Clarified suspension was ultracentrifuged at 100,000 g for 2 hours and separated into membrane and cytosol. Membrane fraction was washed with washing buffer (50 mM Tris-HCl, 1 mM EDTA 1 M NaCl), and pelleted each time with bench-top centrifuge.
2D electrophoresis: For the isolation of total cellular protein, cultured SH-SY5Y cells maintained as described above were rinsed with ice-cold PBS. Cells were lysed in 1 ml dSDS buffer (50 mM Tris-HCl, pH 8.0 0.1% SDS) supplemented with protease inhibitor cocktail. Lysates were boiled for 3 min, and were treated with Dnase and Rnase as described. […]
Western Blotting: Following transfer of SDS gels onto NC membrane, all membranes were blocked with 5% non-fat milk in TBST (50 mM Tris-HCl pH 7.4, 150 mM NaCl, 0.1% Tween 20), and incubated with primary antibody overnight with 1% BSA in TBST, washed three times with TBST, and incubated with horseradish peroxidase-conjugated secondary antibody for 1 hour (Promega). Bound antibodies were detected using enhanced chemiluminascence (NEM).

COC(=O)[C@H](CCSC)NC(=O)c1ccc(NC[C@@H](N)CS)cc1-c1ccccc1 [FTI-277]
total amount of UCH-L1 (UCH-L1 [1]): reduced | rate of turnover of UCH-L1 (UCH-L1 [1]; pulse-chase experiment not shown): increased | amount of cytosolic UCH-L1 (UCH-L1 [2]): without affecting | amount of membrane bound UCH-L1 (membrane-associated, farnesylated species) (UCH-L1 [2]): significant decrease; also recorded: decreased; also recorded: reducing

Source: US20100184803A1, “Treatment of Lysosomal Storage Diseases” (priority 2007, published 2010)
